Literature values, collected in patent publication US20100233107A1, “MEDICATED TONING LOTION” (priority 2009, published 2010).

Question: With `O=C(O)c1ccccc1O` [salicylic acid] as the compound, how does the solubility in water read?
Answer: The solubility in water was “approximately 0.2 % by weight”.

Question: And the “volume of water in which one gram dissolves” value (one gram of salicylic acid)?
Answer: Its value is 460 mL.
